According to patent US10011573B2, “Human androgen receptor DNA-binding domain (DBD) compounds as therapeutics and methods for their use” (The University of British Columbia, priority 2014, dated 2018):
Numbering of substitutions follows the chain as printed.

What was measured:
AR-V7Y594D = AR-V7Y594D (Homo sapiens, UniProt P10275, Y594D); test: ARR3tk-luciferase reporter assay in PC3 cells, AR-V7 Y594D
Description: Cells were then treated with compounds at various concentrations and 0.1 nMR1881 (in 100% ethanol) for 24 h. […] Cell lysis was carried out with 60 μl of 1X passive lysis buffer/well (Promega™)
20 μl of cell lysate from each well were mixed with 50 μl of luciferase assay reagent (Promega™), and luminescence was recorded on a TECAN™ M200pro plate reader. Luciferase assays with splice variant AR were performed the same way but with only 5 ng of pcDNA3.1 AR-V7 (to limit the high level of AR-V7 expression) and no R1881.

AR Q592D mutant = target: T1, AR Q592D mutant (Homo sapiens, UniProt P10275, Q592D); test: ARR3tk-luciferase reporter assay in PC3 cells, AR Q592D; type: cell-based
T1 construct: Full-length human AR (hARWT) or splice variant (AR-V7) was encoded on a pcDNA3.1 expression plasmid; expressed in transfected cells; host or cells: PC3
T1 sequence (P10275 whole entry Q592D, canonical isoform): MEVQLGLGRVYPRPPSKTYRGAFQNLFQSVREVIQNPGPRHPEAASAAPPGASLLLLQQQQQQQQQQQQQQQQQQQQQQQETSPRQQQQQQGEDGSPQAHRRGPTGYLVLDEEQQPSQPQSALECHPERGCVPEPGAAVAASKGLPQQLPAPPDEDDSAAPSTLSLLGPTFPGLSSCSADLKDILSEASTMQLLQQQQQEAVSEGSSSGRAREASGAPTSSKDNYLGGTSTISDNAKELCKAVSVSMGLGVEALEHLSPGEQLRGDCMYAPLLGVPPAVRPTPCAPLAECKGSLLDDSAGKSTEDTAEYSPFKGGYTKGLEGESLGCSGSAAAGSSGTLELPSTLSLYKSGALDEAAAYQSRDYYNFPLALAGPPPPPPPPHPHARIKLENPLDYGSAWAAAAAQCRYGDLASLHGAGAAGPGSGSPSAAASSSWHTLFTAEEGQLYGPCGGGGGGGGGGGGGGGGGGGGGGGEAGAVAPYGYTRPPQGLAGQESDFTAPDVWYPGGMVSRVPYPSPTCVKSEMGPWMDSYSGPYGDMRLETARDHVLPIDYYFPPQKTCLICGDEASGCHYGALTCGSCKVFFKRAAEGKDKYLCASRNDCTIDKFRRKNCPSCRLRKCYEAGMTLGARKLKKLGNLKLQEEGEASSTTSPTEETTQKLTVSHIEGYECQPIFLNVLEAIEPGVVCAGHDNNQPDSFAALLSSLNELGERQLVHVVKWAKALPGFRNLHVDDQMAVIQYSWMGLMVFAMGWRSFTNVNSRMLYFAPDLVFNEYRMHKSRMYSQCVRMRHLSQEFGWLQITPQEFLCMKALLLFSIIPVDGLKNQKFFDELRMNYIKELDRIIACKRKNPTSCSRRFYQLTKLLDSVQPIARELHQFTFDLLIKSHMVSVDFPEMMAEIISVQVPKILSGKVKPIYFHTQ
Description: 8. Mutation Studies: The residues in the predicted binding site were mutated using the Quickchange™ Site-Directed Mutagenesis Kit as per the instructions.
9. Transient Transfection: The PC3/MCF7 cells were seeded into a 96-well plate (2,000 cells/well). After 24 hrs, the wild-type AR (50 ng/well)/AR mutants and AR3TK-luciferase plasmids (1:3) were co-transfected into PC3 cells or ERE-luciferase (50 ng/well) was transfected into MCF7 cells using transfection reagent TT20. 24 hrs after the transfection, the cells were treated with the compounds at various concentrations. And 24 hrs later, the cells were lysed and the reading was taken using a luminometer.

androgen receptor (AR) = target: T2, androgen receptor (AR) (Homo sapiens, UniProt P10275, T878A); test: eGFP cellular AR transcription assay (LNCaP eGFP cells, LN-ARR2PB-eGFP)
T2 sequence (P10275 1-920 T878A): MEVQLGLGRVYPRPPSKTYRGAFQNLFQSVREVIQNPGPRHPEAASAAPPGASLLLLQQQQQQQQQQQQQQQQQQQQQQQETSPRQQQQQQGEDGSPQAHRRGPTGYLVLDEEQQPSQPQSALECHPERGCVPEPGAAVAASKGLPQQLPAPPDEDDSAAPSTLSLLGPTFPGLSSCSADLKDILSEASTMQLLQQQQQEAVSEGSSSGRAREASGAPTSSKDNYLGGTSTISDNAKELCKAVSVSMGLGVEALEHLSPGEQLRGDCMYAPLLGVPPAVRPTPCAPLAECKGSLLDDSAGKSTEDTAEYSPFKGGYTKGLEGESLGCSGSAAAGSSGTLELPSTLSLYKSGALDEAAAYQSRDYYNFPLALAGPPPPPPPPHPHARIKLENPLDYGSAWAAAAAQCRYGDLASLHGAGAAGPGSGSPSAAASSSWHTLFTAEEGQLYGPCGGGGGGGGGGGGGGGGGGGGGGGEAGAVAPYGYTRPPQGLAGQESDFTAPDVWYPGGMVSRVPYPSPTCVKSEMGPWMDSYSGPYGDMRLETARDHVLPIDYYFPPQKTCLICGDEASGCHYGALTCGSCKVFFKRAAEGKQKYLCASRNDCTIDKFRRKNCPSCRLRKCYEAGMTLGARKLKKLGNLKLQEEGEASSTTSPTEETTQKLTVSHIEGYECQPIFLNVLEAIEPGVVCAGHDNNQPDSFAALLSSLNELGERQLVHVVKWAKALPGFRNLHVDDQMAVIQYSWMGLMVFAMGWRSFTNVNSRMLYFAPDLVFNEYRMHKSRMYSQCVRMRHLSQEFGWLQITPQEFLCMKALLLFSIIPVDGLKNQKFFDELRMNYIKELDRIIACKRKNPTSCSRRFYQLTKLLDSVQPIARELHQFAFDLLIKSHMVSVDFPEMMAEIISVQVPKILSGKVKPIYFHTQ

PSA = test: Prostate-specific antigen (PSA) assay, secreted PSA from the eGFP assay plates; type: cell-based, human; conditions: Homo sapiens
Description: 3. Prostate-specific antigen (PSA) assay: The evaluation of PSA levels secreted into the media was performed in parallel to the eGFP assay using the same plates. After cells were incubated for 3 days, 150 μl of the media was taken from each well, and added to 150 μl of PBS.

YFP-AR = target: T3, YFP-AR (Homo sapiens, UniProt P10275); test: Luciferase assay with YFP-AR in PC3 cells; type: cell-based
T3 construct: plasmids encoding YFP-tagged full-length AR (yellow fluorescent protein, YFP-AR); expressed in transfected cells; host or cells: PC3
T3 sequence (P10275 1-920): T2 sequence (P10275 1-920 T878A) with A878T
Text: the underlined primer sections anneal to the specified template, although their 5′-extensions (italicized) are complementary to the corresponding primer sequence of the other PCR. Plasmid assembly is achieved by mixing the PCR products from each reaction (Klock, H. E. et al. (2008) Combining the polymerase incomplete primer extension method for cloning and mutagenesis with microscreening to accelerate structural genomics efforts. Proteins 71, 982-994), followed by transformation into chemically competent bacteria. A similar strategy was used to clone the AR-DBD+hinge into the Pan4 vector (avidity) expressing the N-terminal biotinylation sequence ([…] ) and C-terminal His tag. YFP-AR plasmid was a gift from Dr. Jan Trapman (van Royen, M. E. et al. (2012) Stepwise androgen receptor dimerization. J. Cell Sci. 125, 1970-1979) and is based on pEYFP-C1 (Clontech™). YFP-V7 was constructed by polymerase incomplete primer extension method using the following primers and templates: AR-V7 insert from pcDNA3. AR-V7 template

[1] = eGFP IC50, LNCaP eGFP cells, 0.1 nM R1881
[2] = LNCaP eGFP cells, R1881, secreted PSA

Chain of AR-V7Y594D (P10275 1-644 isoform P10275-3 Y594D): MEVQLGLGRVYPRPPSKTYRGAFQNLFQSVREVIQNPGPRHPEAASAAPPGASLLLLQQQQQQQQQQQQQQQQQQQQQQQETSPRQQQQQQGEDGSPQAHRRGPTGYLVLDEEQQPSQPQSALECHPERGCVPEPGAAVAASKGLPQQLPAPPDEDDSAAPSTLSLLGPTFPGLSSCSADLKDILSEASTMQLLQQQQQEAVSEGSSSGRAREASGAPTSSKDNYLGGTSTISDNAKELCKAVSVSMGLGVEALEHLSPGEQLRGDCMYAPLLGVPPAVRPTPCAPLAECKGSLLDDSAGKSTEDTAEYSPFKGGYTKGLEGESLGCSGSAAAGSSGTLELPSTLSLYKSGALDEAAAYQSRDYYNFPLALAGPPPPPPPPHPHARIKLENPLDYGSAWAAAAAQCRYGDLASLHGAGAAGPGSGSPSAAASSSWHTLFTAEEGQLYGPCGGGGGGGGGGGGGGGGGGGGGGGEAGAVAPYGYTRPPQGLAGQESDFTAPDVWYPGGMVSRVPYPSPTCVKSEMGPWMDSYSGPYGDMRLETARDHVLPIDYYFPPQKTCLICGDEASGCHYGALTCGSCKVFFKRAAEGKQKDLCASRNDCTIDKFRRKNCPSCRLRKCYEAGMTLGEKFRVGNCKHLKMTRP

Row | Structure (SMILES) | inhibition of AR-V7Y594D transcriptional activity (AR-V7Y594D) | inhibition of Q592D AR luciferase expression (AR Q592D mutant) | inhibition at 3 µM (androgen receptor (AR); LNCaP, read-out: % Inhibition (3 μM)) | IC50 (androgen receptor (AR); eGFP IC50 (μM), Series 1) | IC50 (androgen receptor (AR); [1]) | IC50 (PSA; [2]) | IC50 (PSA; Series 1) | inhibition of YFP-AR driven luciferase expression (YFP-AR) | concentration at which Q592D AR is inhibited (AR Q592D mutant; PC3 cells) | fold improved activities compared to compound 6 (14228) (androgen receptor (AR))
1 | c1ccc(-c2csc(N3CCOCC3)n2)cc1 [Compound 14228, 4-(4-phenylthiazol-2-yl)morpholine] | could not be inhibited | not affected | 110% | 0.33 µM | 0.274 µM | 188 nM | 280 nM | could be inhibited | – | –
2 | Brc1ncn(-c2csc(N3CCOCC3)n2)c1Br [Compound 14449] | could not be inhibited | – | – | 0.1 µM | 0.12 ± 0.01 µM | 170 nM | 170 nM | could be inhibited | ≥ 25 µM | 2 fold
